Laboratory results taken from EPA's ToxValDB 9.5.

Assays:
Rattus norvegicus [1] = conditions: oral
Mus musculus = conditions: oral
Rattus norvegicus [2] = conditions: short-term, duration: 28 days, oral, gavage, F, Sprague-Dawley
[3] = developmental, duration: 7 days, Sprague-Dawley, Body Weight: 30% reduction in body weight of dams + Developmental: 13% reduction in body weight of male pups
[4] = developmental, duration: 20 days, F, Sprague-Dawley, Developmental: 5-fold increased neonatal mortality on PNDs 1-3
[5] = developmental, duration: 21 days, F, Sprague-Dawley, Developmental: ~5-fold increased postnatal mortality and severe lung histopathology in pups
[6] = short-term, duration: 28 days, M, Sprague-Dawley, Body Weight: 12% decrease in terminal body weight
[7] = short-term, duration: 28 days, M, Sprague-Dawley, Neurological: Degeneration of gonadotropic cells of the pituitary gland at ?1.0 mg/kg/day / dense chromatin, condensed ribosomes, loss of …
[8] = short-term, duration: 28 days, M, Wistar, Neurological: Tonic convulsions in response to stimuli
[9] = developmental, duration: 17 days, F, Developmental: Decrease in number of successful birthsbirths
[10] = short-term, duration: 3 weeks, M, BALB/c, Immunotoxicological: ~36% decrease in spleen index during recovery / ~15% inhibition in Con Ainduced T-cell proliferation during treatment…
[11] = short-term, duration: 21 days, F, B6C3F1, Immunotoxicological: Decreased host resistance to influenza virus
[12] = subchronic, duration: 3 months, M/F, C57BL/6, Neurological: Impaired spatial learning and memory
[13] = subchronic, duration: 5 weeks, M, Body Weight: 17% decrease in body weight + Reproductive: Decreases in sperm concentration, serum testosterone levels / vacuolation in …

In the case of `O=S(=O)(O)C(F)(F)C(F)(F)C(F)(F)C(F)(F)C(F)(F)C(F)(F)C(F)(F)C(F)(F)F` [Perfluorooctanesulfonic acid], the LOAEL (Rattus norvegicus [1]; developmental, duration: 1 days, M/F, Wistar, Developmental: Decreased spatial learning ability in prenatally or postnatally exposed offspring at ?0.8 mg/kg/day and in offspring exposure…) is reported as 0.8 mg/kg-day, the LOAEL (Rattus norvegicus [1]; developmental, duration: 5 days, M/F, Sprague-Dawley, Body Weight: Reduced body weight in dams / approximately 98% on GD 8 and 33% on GD 20 + Developmental: Decreased birth weight in females …) is reported as 18.8 mg/kg-day and the LOAEL (Rattus norvegicus [1]; [3]) is reported as 20 mg/kg-day. The NOAEL (Rattus norvegicus [1]; [3]) was 5 mg/kg-day, the LOAEL (Rattus norvegicus [1]; [4]) was 2 mg/kg-day and the NOAEL (Rattus norvegicus [1]; [4]) was 0.6 mg/kg-day. The LOAEL (Rattus norvegicus [1]; [5]) was 2 mg/kg-day, the NOAEL (Rattus norvegicus [1]; [5]) was 0.1 mg/kg-day and the NOAEL (Rattus norvegicus [1]; developmental, duration: 84 days, gavage, M/F, Sprague-Dawley, developmental) was 7.43 mg/L. The NOAEL (Rattus norvegicus [1]; short-term, duration: 21 days, M, Sprague-Dawley) was 10 mg/kg-day, the LOAEL (Rattus norvegicus [1]; short-term, duration: 21 days, M, Sprague-Dawley, Reproductive: Delayed maturation of testicular Leydig cells, decreased seminal vesicle weight, decreased epididymal sperm count, decreased …) was 5 mg/kg-day and the LOAEL (Rattus norvegicus [1]; short-term, duration: 25 days, M, Sprague-Dawley, Endocrine: Decreases in serum corticosterone (~58%) and ACTH levels (~11%), decrease in corticotrophin releasing hormone levels in …) was 0.5 mg/kg-day. It also gave an NOAEL (Rattus norvegicus [1]; short-term, duration: 28 days, M, Sprague-Dawley) of 6 mg/kg-day, an LOAEL (Rattus norvegicus [1]; [6]) of 3.21 mg/kg-day and an NOAEL (Rattus norvegicus [1]; [6]) of 1.33 mg/kg-day. The LOAEL (Rattus norvegicus [1]; short-term, duration: 28 days, M, Sprague-Dawley, Death: 100% by day 26) was 20 mg/kg-day, the LOAEL (Rattus norvegicus [1]; short-term, duration: 28 days, M, Sprague-Dawley, Endocrine: Decreased serum prolactin (~78%) and estradiol concentrations (~18%)) was 3 mg/kg-day and the LOAEL (Rattus norvegicus [1]; short-term, duration: 28 days, M, Sprague-Dawley, Hepatic: Hepatocellular hypertrophy and focal necrosis at ?5 mg/kg/day / fatty degeneration at 20 mg/kg/day + Neurological: Cachexia and …) was 5 mg/kg-day. For the same molecule, the NOAEL (Rattus norvegicus [1]; short-term, duration: 28 days, M, Sprague-Dawley, Hepatic: Increased relative liver weight at ?0.14 mg/kg/day) was 6.34 mg/kg-day, the LOAEL (Rattus norvegicus [1]; [7]) was 1 mg/kg-day and the NOAEL (Rattus norvegicus [1]; [7]) was 0.5 mg/kg-day. It also gave an LOAEL (Rattus norvegicus [1]; [8]) of 8.5 mg/kg-day, an NOAEL (Rattus norvegicus [1]; [8]) of 2 mg/kg-day and an LOAEL (Mus musculus; acute, duration: 1 days, M, C57BL/6, Death: LD50) of 579 mg/kg-day. For the same molecule, the LOAEL (Mus musculus; developmental, duration: 1 days, M, NMRI, Developmental: Altered spontaneous behavior (?60, 87.5, or 60% changes in total activity, rearing, and locomotion)) was 11.3 mg/kg-day, the LOAEL (Mus musculus; developmental, duration: 17 days, CD1, Developmental: Significant increase in cholesterol levels in fetal livers) was 3 mg/kg-day and the LOAEL (Mus musculus; [9]) was 3 mg/kg-day. The NOAEL (Mus musculus; [9]) was 0.1 mg/kg-day, the LOAEL (Mus musculus; developmental, duration: 19 days, F, CD1, Developmental: In PND 63 offspring fed a high fat diet, increased serum glucose levels at ?0.3 mg/kg/day in females (~40%) and 3 mg/kg/day …) was 0.3 mg/kg-day and the NOAEL (Mus musculus; developmental, duration: 19 days, F, CD1, ~24% increase in relative liver weight in dams at 3 mg/kg/day + Developmental: Increase in relative liver weight at 3 mg/kg/day in male and …) was 3 mg/kg-day. It also gave an LOAEL (Mus musculus; reproduction developmental, duration: 6 days, F, CD1, Body Weight: 21% reduction in maternal body weight gain on GDs 14-17) of 8 mg/kg-day, an NOAEL (Mus musculus; reproduction developmental, duration: 17 days, CD1, Hepatic: No alteration in maternal hepatic lipid levels) of 3 mg/kg-day and an LOAEL (Mus musculus; short-term, duration: 3 weeks, M, BALB/c, Body Weight: ~15% reduction in body weight during the recovery period) of 10 mg/kg-day. For the same molecule, the LOAEL (Mus musculus; [10]) was 5 mg/kg-day, the NOAEL (Mus musculus; [10]) was 2.5 mg/kg-day and the LOAEL (Mus musculus; short-term, duration: 7 days, F, BALB/c, Body Weight: 41% decreased body weight gain + Immunotoxicological: Inhibition of T lymphocyte proliferation in response to sRBC / decreased…) was 20 mg/kg-day. The NOAEL (Mus musculus; short-term, duration: 7 days, F, BALB/c, Hepatic: 59% increase in relative liver weight) was 20 mg/kg-day, the LOAEL (Mus musculus; short-term, duration: 7 days, M, Immunotoxicological: Impaired response to T-cell mitogens / suppressed response to sRBC) was 5 mg/kg-day and the NOAEL (Mus musculus; short-term, duration: 10 days, M, C57BL/6, Hepatic: 41% increase in liver weight, hepatocellular hypertrophy, and decreased serum cholesterol levels) was 6 mg/kg-day. The LOAEL (Mus musculus; [11]) was 0.025 mg/kg-day, the NOAEL (Mus musculus; [11]) was 0.005 mg/kg-day and the LOAEL (Mus musculus; short-term, duration: 28 days, M, B6C3F1, Body Weight: 21% reduction in body weight) was 0.2 mg/kg-day. It also gave an NOAEL (Mus musculus; short-term, duration: 28 days, M, B6C3F1, Immunotoxicological: No alterations in thymic lymphocyte phenotypes, response to sRBC, or IgM antibodies to LPS) of 0.2 mg/kg-day, an LOAEL (Mus musculus; [12]) of 2.15 mg/kg-day and an NOAEL (Mus musculus; [12]) of 0.43 mg/kg-day. The LOAEL (Mus musculus; [13]) was 10 mg/kg-day, the NOAEL (Mus musculus; [13]) was 0.5 mg/kg-day and the NOAEL (Mus musculus; subchronic, duration: 6 weeks, M, Hepatic: Decreased plasma triglyceride, total cholesterol, non-HDL cholesterol, and HDL cholesterol levels / increased hepatic triglyceride…) was 3 mg/kg-day. For the same molecule, the NOAEL (Mus musculus; subchronic, duration: 30 days, M, C57BL/6) was 10 mg/kg-day, the LOAEL (Mus musculus; subchronic, duration: 30 days, M, C57BL/6, Body Weight: 31% reduction in body weight (correlated with 68% reduction in feed consumption)) was 10 mg/kg-day and the LOAEL (Mus musculus; subchronic, duration: 30 days, M, C57BL/6, Hepatic: Increased liver weight (35%) and serum AST(~12%) and GGT levels (~98%) at ?[…] / increases in ALT (~45%) and ALP (~36%) at ?5 mg/…) was 2.5 mg/kg-day. It also gave an LOEL (Rattus norvegicus [2]; Clinical chemistry_Alanine aminotransferase) of 2.5 mg/kg-day, an LOEL (Rattus norvegicus [2]; Clinical chemistry_Albumin) of 2.5 mg/kg-day and an LOEL (Rattus norvegicus [2]; Clinical chemistry_Albumin/globulin ratio) of 2.5 mg/kg-day. It also gave an LOEL (Rattus norvegicus [2]; Clinical chemistry_Alkaline phosphatase) of 2.5 mg/kg-day, an NOEL (Rattus norvegicus [2]; Clinical chemistry_Aspartate aminotransferase) of 5 mg/kg-day and an LOEL (Rattus norvegicus [2]; Clinical chemistry_Cholesterol) of 5 mg/kg-day. For the same molecule, the LOEL (Rattus norvegicus [2]; Clinical chemistry_Direct bilirubin) was 2.5 mg/kg-day, the LOEL (Rattus norvegicus [2]; Clinical chemistry_Free thyroxine) was 0.312 mg/kg-day and the NOEL (Rattus norvegicus [2]; Clinical chemistry_Globulin) was 5 mg/kg-day. It also gave an NOEL (Rattus norvegicus [2]; Clinical chemistry_Sorbitol dehydrogenase) of 5 mg/kg-day, an NOEL (Rattus norvegicus [2]; Clinical chemistry_Testosterone) of 5 mg/kg-day and an NOEL (Rattus norvegicus [2]; Clinical chemistry_Thyroid stimulating hormone) of 5 mg/kg-day. It also gave an LOEL (Rattus norvegicus [2]; Clinical chemistry_Total bile acids) of 2.5 mg/kg-day, an LOEL (Rattus norvegicus [2]; Clinical chemistry_Total bilirubin) of 5 mg/kg-day and an LOEL (Rattus norvegicus [2]; Clinical chemistry_Total protein) of 5 mg/kg-day. For the same molecule, the LOEL (Rattus norvegicus [2]; Clinical chemistry_Total thyroxine) was 0.312 mg/kg-day, the LOEL (Rattus norvegicus [2]; Clinical chemistry_Total triiodothyronine) was 0.625 mg/kg-day and the LOEL (Rattus norvegicus [2]; Clinical chemistry_Triglycerides) was 2.5 mg/kg-day. For the same molecule, the LOEL (Rattus norvegicus [2]; Gene expression_Acox1) was 0.312 mg/kg-day, the LOEL (Rattus norvegicus [2]; Gene expression_Cyp2b1) was 0.312 mg/kg-day and the LOEL (Rattus norvegicus [2]; Gene expression_Cyp2b2) was 0.312 mg/kg-day. For the same molecule, the LOEL (Rattus norvegicus [2]; Gene expression_Cyp4a1) was 0.312 mg/kg-day, the NOEL (Rattus norvegicus [2]; Hematology_Erythrocytes) was 5 mg/kg-day and the NOEL (Rattus norvegicus [2]; Hematology_Hematocrit) was 5 mg/kg-day. It also gave an NOEL (Rattus norvegicus [2]; Hematology_Hemoglobin) of 5 mg/kg-day, an NOEL (Rattus norvegicus [2]; Hematology_Leukocytes) of 5 mg/kg-day and an LOEL (Rattus norvegicus [2]; Hematology_Reticulocytes) of 2.5 mg/kg-day. The NOEL (Rattus norvegicus [2]; Hematology_S. neutrophils) was 5 mg/kg-day, the LOEL (Rattus norvegicus [2]; Nonneoplastic effects_Bone marrow - Hypocellularity) was 2.5 mg/kg-day and the NOEL (Rattus norvegicus [2]; Nonneoplastic effects_Kidney - Papilla, necrosis) was 5 mg/kg-day. For the same molecule, the LOEL (Rattus norvegicus [2]; Nonneoplastic effects_Liver - Hepatocyte, cytoplasmic alteration) was 1.25 mg/kg-day.
